Holding throughout (format): in vivo
Assay [1] relates to Cucurbit Leaf Beetle (Aulacophora femoralis). Kind of assay: Test against cucurbit leaf beetle (Aulacophora femoralis), leaf immersion. The note with it: 100 ppm; cucumber leaves immersed; second-instar larvae; after 7 days. The method, then:
(§1) Unless not mentioned otherwise, the test solutions were prepared as follows:
(§2) Containing as solvent: Dimethylformamide, 3 parts by weight; and as emulsifier: Polyoxyethylene alkyl phenyl ether, 1 part by weight. To prepare the test solution, 1 part by weight of an active compound is mixed with the above-mentioned amount of solvent containing the above-mentioned amount of emulsifier, and the mixture is diluted with water to the desired concentration.
Cucumber leaves were immersed in the test solution at the appropriate concentration, and the leaves were dried in air. The leaves were then placed in a plastic cup containing sterilized black soil, and five second-instar larvae of cucurbit leaf beetle were released therein. The plastic cup was placed in a temperature-controlled chamber at 25° C. After 7 days, the number of dead larvae was counted, and thus the insecticidal activity was calculated. An insecticidal activity of 100% means that all beetles were killed, whereas an insecticidal activity of 0% means that no beetle was killed.

Assay [2] concerns Tobacco Cutworm (Spodoptera litura) Larvae. Kind of assay: Test against tobacco cutworm larvae, root systemicity. The following applies: 100 ppm; broccoli seedling roots dipped 3 days; second-instar larvae; after 4 days. The method, then:
as §1, §2
The roots of seedling of broccoli at 1.2 leaf stage were dipped into the test solution at the appropriate concentration. After 3 days, the leaves were cut and placed in a petri dish having a diameter of 9 cm. And then five second-instar larvae of tobacco cutworm were released therein. The petri dish was placed in a temperature-controlled room at 25° C. After 4 days, the number of dead larvae was counted, to calculate the insecticidal activity. An insecticidal activity of 100% means that all larvae were killed, whereas an insecticidal activity of 0% means that no larva was killed.

Assay [3] has the same test system. Kind of assay: Test against tobacco cutworm (Spodoptera litura) larvae, leaf immersion. The following applies: 100 ppm; sweet potato leaves immersed; third-instar larvae; after 7 days. The method, then:
as §1, §2
The leaves of sweet potato were immersed in the test solution at the appropriate concentration, and the leaves were dried in air. The leaves were then placed in a petri dish having a diameter of 9 cm, and ten third-instar larvae of tobacco cutworm were released therein. The petri dish was placed in a temperature-controlled chamber at 25° C. After 2 days and 4 days sweet potato leaves were additionally added. After 7 days, the number of dead larvae was counted to calculate the insecticidal activity. An insecticidal activity of 100% means that all larvae were killed, whereas an insecticidal activity of 0% means that no larva was killed. In the current test, the results of two petri dishes for each partition were averaged.

Assay [4] concerns Two-Spotted Spider Mite (Tetranychus urticae). Kind of assay: Test against two-spotted spider mite (Tetranychus urticae), spray. The note with it: 100 ppm; sprayed on kidney bean; adult mites; after 7 days. The method, then:
as §1, §2
50 to 100 adult two-spotted spider mites were inoculated onto the leaves of kidney beans at the two-true leaf stage, which plant had been cultivated in a pot having a diameter of 6 cm. After one day, test solution at the appropriate concentration was sprayed thereon in a sufficient amount using a spray gun. After the spraying, the plant pot was placed inside a greenhouse, and after 7 days, the acaricidal activity was calculated. An acaricidal activity of 100% means that all mites were killed, whereas an acaricidal activity of 0% means that no mite was killed.

For 34 compounds, insecticidal activity and acaricidal activity rate results are on record in patent publication US8410141B2, “Insecticidal arylpyrrolines” (Bayer Cropscience AG, priority 2009, dated 2013).

As for `N#Cc1cc(C2=NCC(c3ccc(F)c(C(F)(F)F)c3)(C(F)(F)F)C2)ccc1-n1cncn1` (stereo not drawn) [1-4], the insecticidal activity in assay [1], in assay [2] and in assay [3] was 100% each time. Further, in assay [4], the acaricidal activity rate came to 100%.
On to `N#Cc1cc(C2=NCC(c3cc(Cl)c(Br)c(Cl)c3)(C(F)(F)F)C2)ccc1-n1cncn1` (stereo not drawn) [1-15], for which the insecticidal activity in assay [1] and in assay [3] was 100% each time. The same compound came in with an acaricidal activity rate in assay [4] of 100%.
For the compound `FC(F)(F)C1(c2cc(Cl)c(Cl)c(Cl)c2)CN=C(c2ccc(-n3cncn3)cc2)C1` (stereo not drawn) [1-27], the insecticidal activity in assay [1] and in assay [3] was 100% each time. Further, the acaricidal activity rate in assay [4] was determined as 100%.
Turning to `FC(F)(F)C1(c2cc(Cl)c(Cl)c(Cl)c2)CN=C(c2ccc(-n3cncn3)c(Br)c2)C1` (stereo not drawn) [1-31], the insecticidal activity in assay [1] and in assay [3] was 100% throughout. In addition, the acaricidal activity rate in assay [4] was 100%.
`FC(F)(F)c1cc(C2=NCC(c3cc(Cl)c(Cl)c(Cl)c3)(C(F)(F)F)C2)ccc1-n1cncn1` (stereo not drawn) [1-34]: the insecticidal activity in assay [1] and in assay [3] was 100% throughout.
As to `O=[N+]([O-])c1cc(C2=NCC(c3cc(Cl)c(Cl)c(Cl)c3)(C(F)(F)F)C2)ccc1-n1cncn1` (stereo not drawn) [1-35], the insecticidal activity in assay [1] and in assay [3] was 100% in each case. This compound came in with an acaricidal activity rate in assay [4] of 100%.
Consider `N#Cc1cc(C2=NCC(c3cc(C(F)(F)F)cc(Cl)n3)(C(F)(F)F)C2)ccc1-n1cncn1` (stereo not drawn) [1-84], for which the insecticidal activity in assay [1], in assay [2] and in assay [3] was 100% each time. Moreover, the acaricidal activity rate in assay [4] is 100%.
In the case of `FC(F)(F)C1(c2cc(Cl)c(Cl)c(Cl)c2)CN=C(c2ccc(-n3cncn3)nc2)C1` (stereo not drawn) [1-110], the insecticidal activity in assay [1] and in assay [3] was 100% throughout. The compound also returned an acaricidal activity rate in assay [4] of 100%.
For the compound `N#Cc1cc(C2=NCC(c3ccnc(C(F)(F)C(F)(F)F)c3)(C(F)(F)F)C2)ccc1-n1cncn1` (stereo not drawn) [1-156], the insecticidal activity in assay [1] and in assay [3] was 100% throughout. In assay [4], this compound yielded an acaricidal activity rate of 100%.
On to `Cc1ccc(C2(C(F)(F)F)CN=C(c3ccc(-n4cncn4)c(C#N)c3)C2)cc1[N+](=O)[O-]` (stereo not drawn) [1-174], for which, in assay [4], the acaricidal activity rate is recorded as 100%.
As for `Cc1cc([N+](=O)[O-])cc(C2(C(F)(F)F)CN=C(c3ccc(-n4cncn4)c(C#N)c3)C2)c1` (stereo not drawn) [1-180], the acaricidal activity rate in assay [4] stood at 100%.
With `N#Cc1cc(C2=NCC(c3cncc(C(F)(F)F)c3)(C(F)(F)F)C2)ccc1-n1cncn1` (stereo not drawn) [1-481], the insecticidal activity in assay [1] and in assay [3] was 100% throughout.
Regarding `N#Cc1cc(C2=NCC(c3cc(C(F)(F)F)ccc3F)(C(F)(F)F)C2)ccc1-n1cncn1` (stereo not drawn) [1-482], the insecticidal activity in assay [1] and in assay [3] was 100% throughout. In assay [4], this compound displayed an acaricidal activity rate of 100%.
`N#Cc1cc(C2=NCC(c3ccnc(Cl)c3)(C(F)(F)F)C2)ccc1-n1cncn1` (stereo not drawn) [1-484]: in assay [1], the insecticidal activity amounted to 100%. Moreover, the acaricidal activity rate in assay [4] was 100%.
On to `N#Cc1cc(C2=NCC(c3cc(Cl)cc(Cl)c3Cl)(C(F)(F)F)C2)ccc1-n1cncn1` (stereo not drawn) [1-488], for which the insecticidal activity in assay [1] and in assay [3] was 100% in each case. The compound further returned an acaricidal activity rate in assay [4] of 100%.
With `FC(F)(F)C1(c2cc(Cl)nc(Cl)c2)CN=C(c2cnc(-n3cncn3)c(Cl)c2)C1` (stereo not drawn) [1-490], the insecticidal activity in assay [1] and in assay [3] was 100% each time.
Take `FC(F)(F)c1cc(C(F)(F)F)cc(C2(C(F)(F)F)CN=C(c3cnc(-n4cncn4)c(Cl)c3)C2)c1` (stereo not drawn) [1-491]: the insecticidal activity in assay [1] and in assay [3] was 100% each time.
On to `N#Cc1cc(C2=NCC(c3cc(Cl)nc(C(F)(F)F)c3)(C(F)(F)F)C2)ccc1-n1cncn1` (stereo not drawn) [1-492], for which the insecticidal activity in assay [1], in assay [2] and in assay [3] was 100% throughout. This compound also had an acaricidal activity rate in assay [4] of 100%.
As to `N#Cc1cc(C2=NCC(c3cc(C(F)(F)F)cc(C(F)(F)F)c3)(C(F)(F)F)C2)cnc1-n1cncn1` (stereo not drawn) [1-494], the insecticidal activity in assay [1] and in assay [3] was 100% throughout.
Regarding `N#Cc1cc(C2=NCC(c3cc(Br)c4c(c3)OC(F)(F)O4)(C(F)(F)F)C2)ccc1-n1cncn1` (stereo not drawn) [1-496], the insecticidal activity in assay [1] and in assay [3] was 100% throughout. The same compound came in with an acaricidal activity rate in assay [4] of 100%.
On to `N#Cc1cc(C2=NCC(c3cc(OC(F)F)cc(C(F)(F)F)c3)(C(F)(F)F)C2)ccc1-n1cncn1` (stereo not drawn) [1-497], for which the insecticidal activity in assay [1], in assay [2] and in assay [3] was 100% each time.
Turning to `N#Cc1cc(C2=NCC(c3cc(Cl)cc(Cl)c3)(C(F)(F)Cl)C2)ccc1-n1cncn1` (stereo not drawn) [1-506], the insecticidal activity in assay [1] and in assay [3] was 100% each time. For the same compound, the acaricidal activity rate in assay [4] came to 100%.
On to `Cc1cc(C2=NCC(c3cc(Cl)c(Cl)c(Cl)c3)(C(F)(F)F)C2)ccc1CN` (stereo not drawn) [2-76], for which, in assay [3], the insecticidal activity stood at 100%.
As to `CC(=O)NCc1ccc(C2=NCC(c3cc(Cl)c(Cl)c(Cl)c3)(C(F)(F)F)C2)cc1` (stereo not drawn) [2-168], the insecticidal activity in assay [1] and in assay [3] was 100% throughout. Further, the acaricidal activity rate in assay [4] was 100%.
Take `CCC(=O)NCc1ccc(C2=NCC(c3cc(Cl)c(Cl)c(Cl)c3)(C(F)(F)F)C2)cc1` (stereo not drawn) [2-169]: the insecticidal activity in assay [1] and in assay [3] was 100% throughout. Further, the acaricidal activity rate in assay [4] was determined as 100%.
As for `O=C(CC(F)(F)F)NCc1ccc(C2=NCC(c3cc(Cl)c(Cl)c(Cl)c3)(C(F)(F)F)C2)cc1` (stereo not drawn) [2-170], the insecticidal activity in assay [1] and in assay [3] was 100% throughout. In assay [4], this compound returned an acaricidal activity rate of 100%.
`Cc1cc(C2=NCC(c3cc(C(F)(F)F)cc(C(F)(F)F)c3)(C(F)(F)F)C2)ccc1CN` (stereo not drawn) [2-547] returned an insecticidal activity in assay [3] of 100%.
For `Cc1cc(C2=NCC(c3cc(C(F)(F)F)cc(C(F)(F)F)c3)(C(F)(F)F)C2)ccc1CNC(=O)OC(C)(C)C` (stereo not drawn) [2-548], the insecticidal activity in assay [1] and in assay [3] was 100% throughout. Also, the acaricidal activity rate in assay [4] is listed as 100%.
In the case of `CCC(=O)NCc1ccc(C2=NCC(c3cc(Cl)nc(Cl)c3)(C(F)(F)F)C2)cc1C(F)(F)F` (stereo not drawn) [2-2151], the insecticidal activity in assay [1] and in assay [3] was 100% throughout. The acaricidal activity rate in assay [4] is 100%.
In the case of `CC(=O)NCc1ccc(C2=NCC(c3cc(C(F)(F)F)nc(C(F)(F)F)c3)(C(F)(F)F)C2)cc1Br` (stereo not drawn) [2-2732], the insecticidal activity in assay [1] and in assay [3] was 100% throughout. Besides, in assay [4], the acaricidal activity rate came to 100%.
For the compound `CCC(=O)NCc1ccc(C2=NCC(c3cc(C(F)(F)F)nc(C(F)(F)F)c3)(C(F)(F)F)C2)cc1Br` (stereo not drawn) [2-2733, N-(4-{3-[2,6-bis(trifluoromethyl)pyridin-4-yl]-3-(trifluoromethyl)-3,4-dihydro-2H-pyrrol-5-yl}-2-bromobenzyl)propanamide], the insecticidal activity in assay [1] and in assay [3] was 100% each time. The compound also yielded an acaricidal activity rate in assay [4] of 100%.
For `CSCC(=O)NCc1ccc(C2=NCC(c3cc(C(F)(F)F)nc(C(F)(F)F)c3)(C(F)(F)F)C2)cc1Br` (stereo not drawn) [2-2737], the insecticidal activity in assay [1] and in assay [3] was 100% in each case. The compound also came in with an acaricidal activity rate in assay [4] of 100%.
Consider `CS(=O)(=O)CC(=O)NCc1ccc(C2=NCC(c3cc(C(F)(F)F)nc(C(F)(F)F)c3)(C(F)(F)F)C2)cc1Br` (stereo not drawn) [2-2739], for which the insecticidal activity in assay [1] and in assay [3] was 100% in each case. In addition, the acaricidal activity rate in assay [4] is listed as 100%.
Turning to `CCC(=O)NC(C)c1ccc(C2=NCC(c3cc(C(F)(F)F)nc(C(F)(F)F)c3)(C(F)(F)F)C2)cc1` (stereo not drawn) [2-2872], the insecticidal activity in assay [2] and in assay [3] was 100% each time.
